Laboratory results published in ChEMBL document CHEMBL1201862, “PubChem BioAssay data set” (2004).
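Where inhibition never reached the appropriate level, the endpoint shown equals the highest concentration tested. Otherwise, values were interpolated linearly from a five-concentration, 48-hour dose response in 96-well plates. GI50 marks 50% less growth.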 Activity calls are given as the source filed them. No stated cut-off is given here; in the data, active = GI50 up to about 1.1 µM and inactive = higher.

Experiments:
Assay in all cases: DTP human tumour cell line panel, 48 h
SK-MEL-2 = system: SK-MEL-2
IGROV-1 = system: IGROV-1
SNB-19 = system: SNB-19
SK-MEL-5 = system: SK-MEL-5
COLO 205 = system: COLO 205
SK-OV-3 = system: SK-OV-3
NCI-H23 = system: NCI-H23
M14 = system: M14
UACC-62 = system: UACC-62
LOX IMVI = system: LOX IMVI
SF-268 = system: SF-268
KM12 = system: KM12
NCI-H460 = system: NCI-H460
Malme-3M = system: Malme-3M

Measured: GI50

CC(C)C(=O)/C=C/c1ccc(Cl)cc1
inactive: SK-MEL-2 19.4 µM | IGROV-1 21.6 µM | SNB-19 13.4 µM | SK-MEL-5 8.57 µM | COLO 205 28.2 µM | SK-OV-3 40.5 µM | NCI-H23 17 µM | M14 17.1 µM | UACC-62 15.4 µM | LOX IMVI 8.83 µM | SF-268 23.8 µM | KM12 11.5 µM | NCI-H460 15.7 µM

COc1cc2c(cc1O)C=NCC2
inactive: SK-MEL-2 > 100 µM | IGROV-1 > 100 µM | SNB-19 > 100 µM | SK-MEL-5 63.5 µM | COLO 205 65.8 µM | SK-OV-3 > 100 µM | NCI-H23 > 100 µM | M14 > 100 µM | UACC-62 > 100 µM | Malme-3M > 100 µM | SF-268 > 100 µM | KM12 > 100 µM | NCI-H460 > 100 µM

CC1(C)C(=O)C(C)(C)C1=NN
inactive: IGROV-1 > 100 µM | SNB-19 > 100 µM | SK-MEL-5 > 100 µM | COLO 205 > 100 µM | SK-OV-3 > 100 µM | NCI-H23 > 100 µM | M14 > 100 µM | UACC-62 > 100 µM | LOX IMVI > 100 µM | Malme-3M > 100 µM | SF-268 > 100 µM | KM12 > 100 µM | NCI-H460 > 100 µM

Cc1cc(C=O)c2c(=O)c3c(O)ccc(/C=C/C(C)C)c3oc2c1
inactive: SK-MEL-2 > 100 µM | IGROV-1 52.4 µM | SNB-19 > 100 µM | SK-MEL-5 65.5 µM | COLO 205 > 100 µM | NCI-H23 46.7 µM | M14 42.1 µM | UACC-62 56.8 µM | Malme-3M > 100 µM | SF-268 41.9 µM | KM12 86.9 µM | NCI-H460 > 100 µM

CCCCc1c2c(nc3c1CC/C(=C\c1ccccc1)C3=O)CCCC2
inactive: IGROV-1 4.61 µM | SNB-19 3.48 µM | COLO 205 7.48 µM | SK-OV-3 10.2 µM | NCI-H23 5.43 µM | M14 4.91 µM | UACC-62 2.72 µM | LOX IMVI 1.76 µM | Malme-3M 7.33 µM | SF-268 3.49 µM | KM12 3.85 µM | NCI-H460 4.89 µM

CCN(c1ccccc1)[C@H]1C(=O)N(c2ccc([N+](=O)[O-])cc2)[C@H]1c1ccc(OC)cc1
inactive: SK-MEL-2 > 100 µM | IGROV-1 > 100 µM | SNB-19 > 100 µM | SK-MEL-5 > 100 µM | COLO 205 38 µM | SK-OV-3 56.8 µM | NCI-H23 > 100 µM | UACC-62 35.7 µM | Malme-3M > 100 µM | SF-268 > 100 µM | KM12 > 100 µM | NCI-H460 > 100 µM

COC(=O)Cc1c([C@@]2(C)CCCC(C)(C)C2)ccc2c1C(=O)OC2
inactive: IGROV-1 15 µM | SK-MEL-5 7.36 µM | COLO 205 6.7 µM | SK-OV-3 14 µM | NCI-H23 9.35 µM | M14 10.5 µM | UACC-62 10.6 µM | LOX IMVI 11.2 µM | Malme-3M 17.9 µM | KM12 8.15 µM | NCI-H460 8.83 µM

COc1ccc(C[C@]23CCC(=O)N2CCc2cc(OC)c(O)cc23)cc1O
inactive: IGROV-1 > 100 µM | SNB-19 > 100 µM | SK-MEL-5 > 100 µM | COLO 205 > 100 µM | NCI-H23 > 100 µM | M14 > 100 µM | UACC-62 > 100 µM | LOX IMVI > 100 µM | Malme-3M > 100 µM | SF-268 > 100 µM | KM12 > 100 µM | NCI-H460 > 100 µM

NC1=NN(c2ccccc2)C(=O)C1/C(=N\NC(=O)c1cc2ccccc2cc1O)C(=O)Nc1cccc(C(F)(F)F)c1 (stereo unspecified)
inactive: SK-MEL-2 22.4 µM | IGROV-1 27.8 µM | SNB-19 75 µM | SK-MEL-5 23.1 µM | COLO 205 35.7 µM | NCI-H23 29.2 µM | M14 28.7 µM | UACC-62 35.2 µM | LOX IMVI 25.9 µM | Malme-3M 37 µM | SF-268 23.5 µM | KM12 37.3 µM | NCI-H460 27.1 µM
